Test results published in patent US20060035966A1, “Irreversible selective androgen receptor modulators and methods of use thereof” (priority 2002, published 2006).
Like-named read-outs stand apart in the source and are kept apart here.

What was measured:
[1] = test system: DU 145 prostate cancer cell line; experiment: Cytotoxicity, SRB assay, DU 145; format: cell-based, human; settings: Homo sapiens, read-out: IC50 DU 145
Method: (§1) The SRB Assay was used to determine cell number during cytotoxocity experiments. The following protocol was used: • 1. […] Experimental cultures were cultured in 96-well microtiter plates (200 uL growth medium per well; 1,000-200,000 cells per well). • 3. Cultures were fixed with 50 uL 50% TCA (4° C.). (see cell fixation protocol for details). • 4. Fixed cells were stained with 50 uL 0.4% (wt/vol) SRB in 1% acetic acid for 10 minutes. • 5. SRB was removed and the cultures were quickly* rinsed 5 times with 1% acetic acid to remove unbound dye.** • 6. Cultures were air-dried overnight until there is no visible moisture. • 7. […] Absorbance was read at 540 nm. • * quickly performing rinsing process is to prevent desorption of protein-bound SRB • ** completely remove residual wash solution by sharply flicking plates over sink. Fixation of Cells Attached to the Plastic Substratum
(§2) The following protocol was used for fixing cells: • a. 50 uL of 50% TCA (4° C.) were gently layered on the top of growth medium in each well to make a final TCA concentration of 10%. • b. Cultures were incubated at 4° C. for 1 hour. • c. Cultures were washed 5 times with tap water to remove TCA, growth medium, low-molecular-weight metabolites, and serum protein. • d. Plates were air-dried until there was no visible moisture.

[2] = test system: PC-3 bone metastatic prostate cancer cell line; experiment: Cytotoxicity, SRB assay, PC-3; format: cell-based, human; settings: Homo sapiens, read-out: IC50 PC-3
Method: PPC-1, LNCaP, TSU, PC-3, and DU145 were grown in PRMI-1640 medium containing 2 mM L-glutamine supplemented with 10% fetal bovine serum (FBS). Cells were maintained in a 5% CO2/95% air humidified atomosphere at 37° C.
(§3) The SRB Assay was used to determine cell number during cytotoxocity experiments. The following protocol was used: • 1. Cells were detached with 0.25% trypsin. • 2. Experimental cultures were cultured in 96-well microtiter plates (200 uL growth medium per well; 1,000-200,000 cells per well). • 3. Cultures were fixed with 50 uL 50% TCA (4° C.). (see cell fixation protocol for details). • 4. Fixed cells were stained with 50 uL 0.4% (wt/vol) SRB in 1% acetic acid for 10 minutes. • 5. SRB was removed and the cultures were quickly* rinsed 5 times with 1% acetic acid to remove unbound dye.** • 6. Cultures were air-dried overnight until there is no visible moisture. • 7. The cellular protein-bound SRB was dissolved with 200 uL unbuffered Tris base (10 mM, pH 10.5) for 30 minutes on a rocking platform shaker. • 8. Absorbance was read at 540 nm. • * quickly performing rinsing process is to prevent desorption of protein-bound SRB • ** completely remove residual wash solution by sharply flicking plates over sink. Fixation of Cells Attached to the Plastic Substratum
as §2

[3] = test system: TSU prostate cancer cell line; experiment: Cytotoxicity, SRB assay, TSU; format: cell-based, human; settings: Homo sapiens, read-out: IC50 TSU
Method: as §1, §2

[4] = test system: PPC-1 prostate cancer cell line; experiment: Cytotoxicity, SRB assay, PPC-1; format: cell-based, human; settings: Homo sapiens, read-out: IC50 PPC-1
Method: as §1, §2

[5] = test system: AR-expressing LNCaP prostate cancer cell line; experiment: Cytotoxicity, SRB assay, LNCaP; format: cell-based, human; settings: Homo sapiens, LNCaP, read-out: IC50 LNCaP
Method: as §1, §2

[6] = test system: TCCSUP bladder cancer cell line; experiment: Cytotoxicity, SRB assay, TCCSUP; format: cell-based, human; settings: Homo sapiens, TCC-SUP, read-out: IC50 TCCSUP
Method: as §1, §2

[7] = test system: HT-29 colorectal adenocarcinoma cell line; experiment: Cytotoxicity, SRB assay, HT-29; format: cell-based, human; settings: Homo sapiens, read-out: IC50 HT-29
Method: as §1, §2

[8] = test system: CV-1 control cell line; experiment: Cytotoxicity, SRB assay, CV-1 control; format: cell-based, African green monkey; settings: Chlorocebus sabaeus, read-out: IC50 CV-1
Method: as §3, §2

[9] = test system: MCF-7 breast adenocarcinoma cell line; experiment: Cytotoxicity, SRB assay, MCF-7; format: cell-based; settings: Homo sapiens, Example 4
Method: as §3, §2

[10] = test system: LNCaP cells; experiment: Induction of apoptosis, LNCaP; format: cell-based, human
Method: (§4) The ability of DJ 1-31, DJ 1-29, S-NTBA and Compound V to induce apoptosis in different prostate cancer cell lines (DU 145, PC-3, TSU, PPC-1 and LNCaP), in other cancer cell lines (TCCSUP, HT-29 and MCF-7) and in a control cell line (CV-1) was determined and the results are shown in Table 6.

[11] = test system: DU 145 cells; experiment: Induction of apoptosis, DU 145; format: cell-based, human
Method: as §4

[12] = test system: PC-3 cells; experiment: Induction of apoptosis, PC-3; format: cell-based, human
Method: as §4

[13] = test system: PPC-1 cells; experiment: Induction of apoptosis, PPC-1; format: cell-based, human
Method: as §4

[14] = test system: TSU cells; experiment: Induction of apoptosis, TSU; format: cell-based, human
Method: as §4

[15] = test system: HT-29 cells; experiment: Induction of apoptosis, HT-29; format: cell-based, human
Method: as §4

[16] = test system: TCCSUP cells; experiment: Induction of apoptosis, TCCSUP; format: cell-based, human
Method: as §4

[17] = test system: MCF-7 cells; experiment: Induction of apoptosis, MCF-7; format: cell-based
Method: as §4

[18] = test system: CV-1 cells; experiment: Induction of apoptosis, CV-1; format: cell-based, African green monkey
Method: as §4

[19] = MCF7, 24 h, drug incubation time 1 day
[20] = MCF7, 96 h, drug incubation time 4 day

| Compound | IC50 ([1]; DU-145, 24 h) | IC50 ([1]; DU-145, 96 h) | IC50 ([2]; 24 h) | IC50 ([2]; 96 h) | IC50 ([3]; 24 h) | IC50 ([3]; 96 h) | IC50 ([4]; PPC-1, 24 h) | IC50 ([4]; PPC-1, 96 h) | IC50 ([5]; 24 h) | IC50 ([5]; 96 h) | IC50 ([6]; 24 h) | IC50 ([6]; 96 h) | IC50 ([7]; HT-29, 24 h) | IC50 ([7]; HT-29, 96 h) | IC50 ([8]; 24 h) | IC50 ([8]; 96 h) | IC50 [9, 19] | IC50 [9, 20] | Enrichment factor LNCaP [10] | Enrichment factor DU 145 [11] | also measured |
| --- | --- | --- | --- | --- | --- | --- | --- | --- | --- | --- | --- | --- | --- | --- | --- | --- | --- | --- | --- | --- | --- |
| C[C@](O)(COc1ccc(NC(=O)CBr)cc1)C(=O)Nc1ccc([N+](=O)[O-])c(C(F)(F)F)c1 [DJ 1-29] | 400 ± 100 nM | 400 ± 100 nM | 2300 ± 100 nM | 2400 ± 400 nM | 1300 ± 100 nM | 1000 ± 100 nM | 900 ± 100 nM | 1300 ± 100 nM | 1100 ± 400 nM | 1800 ± 200 nM | 2600 ± 400 nM | 2500 ± 400 nM | 3600 ± 400 nM | 4400 ± 200 nM | 6800 ± 500 nM | 7300 ± 200 nM | 11900 ± 300 nM | 12900 ± 700 nM | 16.571 | 18.643 | Enrichment factor PC-3 [12]: 0.531; Enrichment factor PPC-1 [13]: 1.146; Enrichment factor TSU [14]: 1.008; Enrichment factor HT-29 [15]: 1.667; Enrichment factor TCCSUP [16]: 0.000; Enrichment factor MCF-7 [17]: 1.617; Enrichment factor CV-1 [18]: 0.786 |
| C[C@](O)(COc1ccc(NC(=O)CCl)cc1)C(=O)Nc1ccc([N+](=O)[O-])c(C(F)(F)F)c1 [DJ 1-31] | 1000 ± 200 nM | 700 ± 100 nM | 5400 ± 800 nM | 5300 ± 800 nM | 1300 ± 100 nM | 1100 ± 100 nM | 1900 ± 100 nM | 1900 ± 100 nM | 2900 ± 1200 nM | 3300 ± 400 nM | 2100 ± 300 nM | 2100 ± 300 nM | 5400 ± 100 nM | 3700 ± 700 nM | 5800 ± 300 nM | 5300 ± 200 nM | 15800 ± 2700 nM | 14000 ± 1100 nM | 1.374 | 2.500 | Enrichment factor PC-3 [12]: 0.594; Enrichment factor PPC-1 [13]: 1.312; Enrichment factor TSU [14]: 0.848; Enrichment factor HT-29 [15]: 1.205; Enrichment factor TCCSUP [16]: 0.471; Enrichment factor MCF-7 [17]: 0.938; Enrichment factor CV-1 [18]: 0.702 |
